In PubChem BioAssay AID248 (DTP/NCI, 2004):
Where “and” joins values, the source holds several entries; their conditions need not be identical. Identical values can stand only once. Inconclusive results and toxic doses are left out. Peptide text beside a SMILES is read from it. * marks the point of attachment. Cbz = O=C(OCc1ccccc1)*

Tested on: L1210 leukemia ip in BDF1 mice, survival T/C
Assay: NCI In Vivo Anticancer Drug Screen. Data for tumor model L1210 Leukemia (intraperitoneal) in B6D2F1 (BDF1) mice
Settings: endpoint: mean survival time, higher = longer survival
How it was run: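 Transplanted-tumor mice were given test agent; controls received vehicle only. Survival readings from the two groups were divided (treated over control).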

[1] = dose: 100.0 mg/kg/injection, schedule: Q04DX003 (ip), vehicle: Klucel (hydroxypropylcellulose) (HPC)
[2] = dose: 200.0 mg/kg/injection, schedule: Q04DX003 (ip), vehicle: Klucel (hydroxypropylcellulose) (HPC)
[3] = dose: 100.0 mg/kg/injection, schedule: Q01DX009 (ip), vehicle: Klucel (hydroxypropylcellulose) (HPC)
[4] = dose: 200.0 mg/kg/injection, schedule: Q01DX009 (ip), vehicle: Klucel (hydroxypropylcellulose) (HPC)
[5] = dose: 400.0 mg/kg/injection, schedule: Q01DX009 (ip), vehicle: Klucel (hydroxypropylcellulose) (HPC)
[6] = dose: 400.0 mg/kg/injection, schedule: Q04DX003 (ip), vehicle: Klucel (hydroxypropylcellulose) (HPC)
[7] = dose: 100.0 mg/kg/injection, schedule: Q04DX003 (ip), vehicle: saline with Tween-80
[8] = dose: 200.0 mg/kg/injection, schedule: Q04DX003 (ip), vehicle: saline with Tween-80
[9] = dose: 400.0 mg/kg/injection, schedule: Q04DX003 (ip), vehicle: saline with Tween-80
[10] = dose: 100.0 mg/kg/injection, schedule: Q04DX002 (ip), vehicle: Klucel (hydroxypropylcellulose) (HPC)
[11] = dose: 200.0 mg/kg/injection, schedule: Q04DX002 (ip), vehicle: Klucel (hydroxypropylcellulose) (HPC)
[12] = dose: 400.0 mg/kg/injection, schedule: Q04DX002 (ip), vehicle: Klucel (hydroxypropylcellulose) (HPC)
[13] = dose: 100.0 mg/kg/injection, schedule: Q01DX001 (ip), vehicle: carboxymethylcellulose (CMC)
[14] = dose: 200.0 mg/kg/injection, schedule: Q01DX001 (ip), vehicle: carboxymethylcellulose (CMC)
[15] = dose: 400.0 mg/kg/injection, schedule: Q01DX001 (ip), vehicle: carboxymethylcellulose (CMC)
[16] = dose: 100.0 mg/kg/injection, schedule: Q01DX001 (ip), vehicle: saline
[17] = dose: 200.0 mg/kg/injection, schedule: Q01DX001 (ip), vehicle: saline
[18] = dose: 100.0 mg/kg/injection, schedule: Q01DX001 (ip), vehicle: other
[19] = dose: 200.0 mg/kg/injection, schedule: Q01DX001 (ip), vehicle: other
[20] = dose: 400.0 mg/kg/injection, schedule: Q01DX001 (ip), vehicle: other

CC(C)CC(C)N (stereo not drawn)
T/C (dose: 50.0 mg/kg/injection, schedule: Q04DX003 (ip), vehicle: Klucel (hydroxypropylcellulose) (HPC)): 93 % of control
T/C [1]: 100 % of control
T/C [2]: 96 % of control

O=C(Cc1ccc(Cl)cc1)N/N=C/c1ccc([N+](=O)[O-])s1
T/C (dose: 100.0 mg/kg/injection, schedule: Q04DX003 (ip), vehicle: saline): 93 % of control
T/C (dose: 200.0 mg/kg/injection, schedule: Q04DX003 (ip), vehicle: saline): 93 % of control
T/C (dose: 400.0 mg/kg/injection, schedule: Q04DX003 (ip), vehicle: saline): 90 % of control

CSc1ccc(C(O)Cc2ccc([N+](=O)[O-])cc2)cc1 (stereo not drawn)
T/C [3]: 96 % of control
T/C [1]: 94 % of control
T/C [4]: 97 % of control
T/C [2]: 96 % of control
T/C [5]: 100 % of control
T/C [6]: 98 % of control

S=c1sc2ccccc2n1CN(c1ccccc1)c1ccc2ccccc2c1
T/C (dose: 100.0 mg/kg/injection, schedule: Q01DX009 (ip), vehicle: saline with Tween-80): 88 % of control
T/C [7]: 88 % of control
T/C (dose: 200.0 mg/kg/injection, schedule: Q01DX009 (ip), vehicle: saline with Tween-80): 90 % of control
T/C [8]: 88 % of control
T/C (dose: 400.0 mg/kg/injection, schedule: Q01DX009 (ip), vehicle: saline with Tween-80): 94 % of control
T/C [9]: 93 % of control

Cc1c(C)c(C)c(CC2(C)CSC2)c(CC2(C)CSC2)c1C
T/C [10]: 100 % of control
T/C [11]: 91 % of control
T/C [12]: 94 % of control

COc1ccc(C2C=C(C)Oc3c2c(=O)oc2ccccc32)cc1OC (stereo not drawn)
T/C (dose: 6.25 mg/kg/injection, schedule: Q01DX009 (ip), vehicle: water): 96 % of control
T/C (dose: 12.5 mg/kg/injection, schedule: Q01DX009 (ip), vehicle: water): 98 % of control
T/C (dose: 25.0 mg/kg/injection, schedule: Q01DX009 (ip), vehicle: water): 100 % of control and 91 % of control
T/C (dose: 50.0 mg/kg/injection, schedule: Q01DX009 (ip), vehicle: water): 86 % of control

Cc1nc2ccccc2cc1C#N
T/C [13]: 118 % of control
T/C [14]: 118 % of control
T/C [15]: 108 % of control

CCCCCCCCCCCCCC(CC1CCCCC1)CC1CCCCC1
T/C (dose: 100.0 mg/kg/injection, schedule: Q01DX001 (ip), vehicle: saline with Tween-80): 103 % of control
T/C (dose: 200.0 mg/kg/injection, schedule: Q01DX001 (ip), vehicle: saline with Tween-80): 102 % of control
T/C (dose: 400.0 mg/kg/injection, schedule: Q01DX001 (ip), vehicle: saline with Tween-80): 100 % of control

CN(Nc1c([N+](=O)[O-])cc([N+](=O)[O-])cc1[N+](=O)[O-])c1ccc2ccccc2c1
T/C (dose: 50.0 mg/kg/injection, schedule: Q01DX009 (ip), vehicle: Klucel (hydroxypropylcellulose) (HPC)): 103 % of control
T/C [3]: 95 % of control
T/C [1]: 95 % of control
T/C [4]: 95 % of control
T/C [2]: 92 % of control
T/C [5]: 98 % of control
T/C [6]: 95 % of control

Cc1ccnc(NS(=O)(=O)c2ccc(N=Nc3cc(N=Nc4ccccc4)c(N)nc3N)cc2)n1
T/C [13]: 105 % of control
T/C [14]: 102 % of control

Oc1[nH]c2ccccc2c1N=NC(=S)Nc1ccccc1
T/C (dose: 75.0 mg/kg/injection, schedule: Q01DX001 (ip), vehicle: saline): 91 % of control
T/C (dose: 150.0 mg/kg/injection, schedule: Q01DX001 (ip), vehicle: saline): 87 % of control

CCCCCCC[As](=O)(O)CCCCCCC
T/C (dose: 50.0 mg/kg/injection, schedule: Q01DX001 (ip), vehicle: saline): 106 % of control
T/C [16]: 103 % of control
T/C [17]: 101 % of control

CCOC(=O)c1cnc(SC)nc1Nc1ccccc1F
T/C [7]: 89 % of control
T/C [8]: 92 % of control

O=C(CNC(=O)c1ccc(C(=O)NCC(=O)Nc2ccc(C3=NCCN3)cc2)cc1)Nc1ccc(C2=NCCN2)cc1
T/C (dose: 1.87 mg/kg/injection, schedule: Q01DX015 (ip), vehicle: methylcellulose (MC)): 102 % of control
T/C (dose: 3.75 mg/kg/injection, schedule: Q01DX015 (ip), vehicle: methylcellulose (MC)): 103 % of control
T/C (dose: 7.5 mg/kg/injection, schedule: Q01DX015 (ip), vehicle: methylcellulose (MC)): 100 % of control
T/C (dose: 10.0 mg/kg/injection, schedule: Q01DX015 (ip), vehicle: methylcellulose (MC)): 102 % of control
T/C (dose: 62.0 mg/kg/injection, schedule: Q01DX Z (ip), vehicle: carboxymethylcellulose (CMC)): 188 % of control
T/C (dose: 125.0 mg/kg/injection, schedule: Q01DX Z (ip), vehicle: carboxymethylcellulose (CMC)): 233 % of control
T/C (dose: 150.0 mg/kg/injection, schedule: Q01DX001 (ip), vehicle: methylcellulose (MC)): 154 % of control
T/C (dose: 250.0 mg/kg/injection, schedule: Q01DX Z (ip), vehicle: carboxymethylcellulose (CMC)): 106 % of control
T/C (dose: 300.0 mg/kg/injection, schedule: Q01DX001 (ip), vehicle: methylcellulose (MC)): 158 % of control
T/C (dose: 600.0 mg/kg/injection, schedule: Q01DX001 (ip), vehicle: methylcellulose (MC)): 187 % of control and 201 % of control and 207 % of control
T/C (dose: 900.0 mg/kg/injection, schedule: Q01DX001 (ip), vehicle: methylcellulose (MC)): 174 % of control and 262 % of control

CCOC(=O)Cc1cc(=O)n(C)c2ccccc12
T/C [18]: 97 % of control
T/C [19]: 97 % of control
T/C [20]: 103 % of control

C[N+](C)(CCCN1C(=O)c2cccc3c(Br)ccc(c23)C1=O)Cc1ccc(Cl)c(Cl)c1
T/C [18]: 98 % of control
T/C [19]: 96 % of control
T/C [20]: 93 % of control

CCC1C(=O)N(C)c2ccccc21 (stereo not drawn)
T/C (dose: 100.0 mg/kg/injection, schedule: Q01DX001 (ip), vehicle: acetone): 100 % of control
T/C (dose: 200.0 mg/kg/injection, schedule: Q01DX001 (ip), vehicle: acetone): 96 % of control
T/C (dose: 400.0 mg/kg/injection, schedule: Q01DX001 (ip), vehicle: acetone): 97 % of control

COC(=O)[CH]([Hg][O]C(C)=O)C(OC)c1ccccc1 (stereo not drawn)
T/C (dose: 3.0 mg/kg/injection, schedule: Q04DX002 (ip), vehicle: carboxymethylcellulose (CMC)): 86 % of control
T/C (dose: 6.0 mg/kg/injection, schedule: Q04DX002 (ip), vehicle: carboxymethylcellulose (CMC)): 93 % of control
T/C (dose: 12.5 mg/kg/injection, schedule: Q04DX002 (ip), vehicle: carboxymethylcellulose (CMC)): 94 % of control
T/C (dose: 25.0 mg/kg/injection, schedule: Q04DX002 (ip), vehicle: carboxymethylcellulose (CMC)): 98 % of control

CN(Cc1ccccc1)C(=O)NC(C)(C)C
T/C [10]: 121 % of control
T/C [11]: 102 % of control
T/C [12]: 105 % of control

O=[N+]([O-])/C=C/c1cccs1
T/C (dose: 100.0 mg/kg/injection, schedule: Q01DX001 (ip), vehicle: Klucel (hydroxypropylcellulose) (HPC)): 98 % of control
T/C (dose: 200.0 mg/kg/injection, schedule: Q01DX001 (ip), vehicle: Klucel (hydroxypropylcellulose) (HPC)): 103 % of control

O=S(O)c1cc(Br)ccc1Br
T/C [3]: 97 % of control
T/C [1]: 93 % of control
T/C [4]: 113 % of control
T/C [2]: 104 % of control
T/C [6]: 94 % of control

CCNC(=O)CC#N
T/C [13]: 102 % of control
T/C [14]: 91 % of control
T/C [15]: 108 % of control

CCCCCCCCCCCCCCCC1=NN(c2ccccc2)C(=O)C1N=Nc1ccccc1 (stereo not drawn)
T/C [1]: 102 % of control
T/C [2]: 98 % of control
T/C [6]: 94 % of control

CCOC(=O)CNC(=O)CNC(=O)CNC(=O)OCc1ccccc1 (Cbz-Gly-Gly-Gly-OEt)
T/C [16]: 93 % of control
T/C [17]: 88 % of control
T/C (dose: 400.0 mg/kg/injection, schedule: Q01DX001 (ip), vehicle: saline): 94 % of control

CCCCC(C)(C)COc1nc(OCC(C)(C)CCCC)nc(OCC(C)(C)CCCC)n1
T/C (dose: 25.6 mg/kg/injection, schedule: Q04DX002 (ip), vehicle: saline with Tween-80): 97 % of control
T/C (dose: 64.0 mg/kg/injection, schedule: Q04DX002 (ip), vehicle: saline with Tween-80): 87 % of control
T/C [7]: 89 % of control
T/C (dose: 400.0 mg/kg/injection, schedule: Q04DX002 (ip), vehicle: saline with Tween-80): 91 % of control
T/C [9]: 89 % of control

C/C=C/C1OCC(CC)([N+](=O)[O-])CO1 (stereo not drawn)
T/C [7]: 101 % of control
T/C [8]: 96 % of control
T/C [9]: 98 % of control
